Data taken from ChEMBL document CHEMBL3120134, “A review of non-nucleoside anti-hepatitis B virus agents” (Eur J Med Chem, 2014).
In brackets after ≈: the same amount, converted by molar mass.

Legend:
[1] = Selectivity index, ratio of cytotoxicity towards human HepG2.2.15 cells to IC50 for HBV surface antigen secretion; type: toxicity, cell-based; conditions: read-out: Selectivity Index
[2] = Selectivity index, ratio of cytotoxicity towards human HepG2.2.15 cells to IC50 for HBV DNA production; type: toxicity, cell-based; conditions: read-out: Selectivity Index
[3] = Selectivity index, ratio of cytotoxicity towards human HepG2.2.15 cells to IC50 for HBV e antigen secretion; type: toxicity, cell-based; conditions: read-out: Selectivity Index
Hepatitis B virus [4] = assay: Antiviral activity against Hepatitis B virus infected in human HepG2.2.15 cells assessed as decrease in HBV surface antigen secretion; type: functional, organism-based, HepG2 2.2.15; conditions: for IC50: Hepatitis B virus, HepG2 2.2.15
Hepatitis B virus [5] = assay: Antiviral activity against Hepatitis B virus assessed as inhibition of virion production; type: functional, organism-based
Hepatitis B virus [6] = assay: Antiviral activity against Hepatitis B virus; type: functional, organism-based
Hepatitis B virus [7] = assay: Antiviral activity against Hepatitis B virus infected in human HepG2.2.15 cells assessed as decrease in HBV DNA production; type: functional, organism-based; conditions: HepG2 2.2.15
Hepatitis B virus [8] = assay: Antiviral activity against Hepatitis B virus assessed as inhibition of interaction between Trx-PreS and HBcAg; type: functional, organism-based
Hepatitis B virus [9] = assay: Antiviral activity against Hepatitis B virus assessed as inhibition of Hepatitis B virus DNA replication; type: functional, organism-based
Hepatitis B virus [10] = assay: Antiviral activity against Hepatitis B virus infected in human HepG2.2.15 cells assessed as decrease in HBV surface antigen secretion after 21 days; type: functional, organism-based; conditions: HepG2 2.2.15, 504 h
Hepatitis B virus [11] = assay: Antiviral activity against Hepatitis B virus assessed as inhibition of Hepatitis B virus surface antigen secretion; type: functional, organism-based
Hepatitis B virus [12] = assay: Antiviral activity against Hepatitis B virus assessed as inhibition of Hepatitis B virus e antigen secretion; type: functional, organism-based
Duck hepatitis B virus [13] = assay: Antiviral activity against Duck Hepatitis B virus infected in duckling assessed as decrease in DHBV DNA replication at 0.2 g/kg dosed for 10 days; type: functional; conditions: 240 h
Hepatitis B virus [14] = assay: Antiviral activity against Hepatitis B virus infected in human HepG2.2.15 cells assessed as decrease in HBV e antigen secretion; type: functional, organism-based, HepG2 2.2.15
Hepatitis B virus [15] = assay: Antiviral activity against Hepatitis B virus infected in human HepG2.2.15 cells assessed as decrease in HBV surface antigen secretion at 200 ug/ml after 9 days by ELISA; type: functional; conditions: HepG2 2.2.15, 216 h
Duck hepatitis B virus [16] = assay: Antiviral activity against Duck Hepatitis B virus infected in duckling assessed as decrease in DHBV level in serum at 120 mg/kg dosed through liquid diet for 10 days administered started on day 7 post-infection; type: functional
Hepatitis B virus [17] = assay: Antiviral activity against Hepatitis B virus infected in human HepG2.2.15 cells assessed as decrease in HBV e antigen secretion at 200 ug/ml after 9 days by ELISA; type: functional; conditions: HepG2 2.2.15, 216 h
Hepatitis B virus [18] = assay: Antiviral activity against Hepatitis B virus infected in human MS-G2 cells assessed as decrease in HBV surface antigen production at 20 ug/ml; type: functional
Hepatitis B virus [19] = assay: Antiviral activity against Hepatitis B virus infected in human HepG2.2.15 cells assessed as decrease in HBV e antigen secretion after 9 days; type: functional, organism-based; conditions: HepG2 2.2.15, 216 h

Cc1cc(O)c2c(c1)C(=O)c1cccc(O[C@@H]3O[C@H](CO)[C@@H](O)[C@H](O)[C@H]3O)c1C2=O [PULMATIN]
selectivity ratio [1]: > 42
selectivity ratio [2]: > 42
selectivity ratio [3]: > 42

CC(=O)O[C@H]([C@@H](O)C[C@@H](C)C1=C2C[C@H](O)[C@H]3[C@@]4(C)CCC(=O)C(C)(C)[C@@H]4CC[C@]3(C)[C@@]2(C)CC1)C(C)(C)O
IC50 (Hepatitis B virus [4]): 600 nM

CCC(c1nnc(SCCN2CCN(c3ccccc3OC)CC2)o1)S(=O)(=O)c1ccccc1 (centres undefined)
EC50 (Hepatitis B virus [5]): 1630 nM

O=c1[nH][nH]c(=O)c2c(-c3ccc4c(c3)OCO4)c3c4c(ccc3cc12)OCO4
EC50 (Hepatitis B virus [6]): 30 nM

COc1cc2cc3c(nc2c(CN2CCCC2)c1O)-c1ccc(C)cc1SC3
IC50 (Hepatitis B virus [7]): < 10000 nM

O=C1OC(OCc2ccccc2)=N/C1=C\c1ccccc1
IC50 (Hepatitis B virus [8]): 5400 nM

NC(=O)c1cc2ccc3c(c2c(-c2ccc4c(c2)OCO4)c1C(=O)O)OCO3
EC50 (Hepatitis B virus [6]): 800 nM

CC(=O)Oc1ccccc1C(=O)Nc1ncc([N+](=O)[O-])s1 [NITAZOXANIDE]
EC50 (Hepatitis B virus [6]): 120 nM

CC(=O)OC[C@H]1O[C@@H](Sc2nnc(-c3ccc(Cl)cc3)n2N)[C@H](OC(C)=O)[C@@H](OC(C)=O)[C@@H]1OC(C)=O
IC50 (Hepatitis B virus [6]): 63000 nM

CCOC(=O)c1nc(-c2nccs2)sc1CC(C)C
IC50 (Hepatitis B virus [9]): 1100 nM

C[C@H]1[C@H](OC(=O)CCC(=O)O)O[C@@H]2O[C@@]3(C)CC[C@H]4[C@H](C)CC[C@@H]1[C@@]24OO3 [ARTESUNATE]
IC50 (Hepatitis B virus [10]): 2300 nM

CCOC(=O)c1c(C[S+]([O-])c2ccc(F)cc2)n(C)c2cc(Br)c(O)c(CN3CCOCC3)c12 (centres undefined)
IC50 (Hepatitis B virus [6]): < 60 µg/mL

Cc1oc2nc1C(=O)N[C@@H](C)c1nc(co1)C(=O)N[C@@H](CC(C)C)C(=O)N1CCC[C@H]1C(=O)N[C@@H](C(C)C)c1nc-2cs1 [LEUCAMIDE A]
IC50 (Hepatitis B virus [9]): 76400 nM

COc1ccc2c(c1OC)CN(C)c1c-2ccc2cc3c(cc12)OCO3 [DIHYDROCHELERYTHRINE]
IC50 (Hepatitis B virus [11]): < 50 nM
IC50 (Hepatitis B virus [12]): < 50 nM

O=C(Nc1ncc(Br)s1)c1ccccc1O
EC50 (Hepatitis B virus [6]): 120 nM

CCOC(=O)c1c(C[S+]([O-])c2ccc(F)c(F)c2)n(C)c2cc(Br)c(O)c(Cn3ccnc3C)c12 (centres undefined)
IC50 (Hepatitis B virus [6]): < 60 µg/mL

C[C@@H]1CC[C@]2(C(=O)O[C@@H]3O[C@H](CO)[C@@H](O)[C@H](O)[C@H]3O)CC[C@]3(C)C(=CC[C@@H]4[C@@]5(C)C[C@@H](O)[C@H](O)C(C)(C)[C@@H]5CC[C@]43C)[C@@H]2[C@]1(C)O
selectivity ratio [1]: 4.1
inhibition in vivo at 200 mg/kg (Duck hepatitis B virus [13]): 58.5%
IC50 (Hepatitis B virus [7]): 19.4 µg/mL
IC50 (Hepatitis B virus [4]): 57.7 µg/mL
IC50 (Hepatitis B virus [14]; Hepatitis B virus, HepG2 2.2.15): 30 µg/mL (≈ 46.2 µM)
selectivity ratio [2]: 12.1
selectivity ratio [3]: 7.86

CC(C)(O)[C@@H]1CC[C@](C)([C@H]2[C@@H](O)C[C@@]3(C)[C@@H]4C[C@H](O[C@@H]5O[C@H](CO)[C@@H](O)[C@H](O)[C@H]5O)[C@H]5C(C)(C)[C@@H](O[C@@H]6OC[C@@H](O)[C@H](O)[C@H]6O)CC[C@@]56C[C@@]46CC[C@]23C)O1
inhibition at 200 µg/mL (Hepatitis B virus [15]): 31.8%
inhibition in vivo at 120 mg/kg (Duck hepatitis B virus [16]): 64%
inhibition at 200 µg/mL (Hepatitis B virus [17]): 23.3%

Cc1ccc(C(=O)Nc2ncc(Cl)s2)c(O)c1
EC50 (Hepatitis B virus [6]): 120 nM

COC(=O)C1=C(C)NC(c2ncc(F)cc2F)=N[C@H]1c1ccc(F)cc1Cl
IC50 (Hepatitis B virus [9]): 50 nM

COc1cc2c(cc1O)-c1c(C)c3ccc4c(c3c[n+]1CC2)OCO4.[OH-]
inhibition (INH) (Hepatitis B virus [4]): 50%
inhibition (INH) (Hepatitis B virus [14]): 40%

Nc1ccn([C@@H]2CS[C@H](CO)O2)c(=O)n1 [LAMIVUDINE]
IC50 (Hepatitis B virus [7]): 343000 nM
selectivity ratio [2]: 7
IC50 (Hepatitis B virus [9]): 260 nM

O=C(Nc1ncc(Cl)s1)c1ccccc1O
EC50 (Hepatitis B virus [6]): 120 nM

COc1c(O)cc(O)c2c(=O)cc(-c3ccccc3)oc12 [WOGONIN]
inhibition at 20 µg/mL (Hepatitis B virus [18]): 45.4%
IC50 (Hepatitis B virus [19]): 4 µg/mL (≈ 14.1 µM)

CCOC(=O)c1cc2cc(OC)c(O)c(Cn3ccnc3)c2nc1C[S+]([O-])c1ccc(F)c(F)c1 (centres undefined)
IC50 (Hepatitis B virus [7]): 2600 nM
selectivity ratio [2]: 61.7

Nn1c(SC(c2ccccc2)c2ccccc2)nnc1-c1ccc(Cl)cc1
IC50 (Hepatitis B virus [6]): 40000 nM

COc1cc2nc3c(cc2c(CN2CCCCC2)c1O)CSc1c(C)cc(C)cc1-3
IC50 (Hepatitis B virus [7]): < 10000 nM

CCN(CC)Cc1c(O)c(OC)cc2nc3c(cc12)CSc1ccc(C)cc1-3
IC50 (Hepatitis B virus [7]): < 10000 nM
